Measurements as given in patent US6642222B2, “Pyrano, piperidino, and thiopyrano compounds and methods of use” (Abbott Laboratories, priority 1998, dated 2003).

Experiments:
[1] = tested on: Landrace Pig Bladder; experiment: Functional potassium channel opening activity in isolated bladder strips (field-stimulated twitch); conditions: for Index: ED50 for P1075 divided by ED50 for the test agonist, averaged over tissues; for Efficacy (% P1075) / Emax: maximal efficacy relative to P1075, field stimulated bladder strips; for pD2 / EC50: negative logarithm of ED50; for Emax / EC50: Sus scrofa; for EC50: read-out: pD2 (converted)
Procedure: Compounds were evaluated for functional potassium channel opening activity using tissue strips obtained from Landrace pig bladders. Landrace pig bladders were obtained from female Landrace pigs of 9-30 kg. Landrace pigs were euthanized with an intraperitoneal injection of pentobarbital solution, Somlethal®, J. A. Webster Inc. Sterling Mass. The entire bladder was removed and immediately placed into Krebs Ringer bicarbonate solution (composition, mM: NaCl, 120; […] Dextrose, 4.7; […] Propranolol (0.004 mM) was included in all of the assays to block β-adrenoceptors. The trigonal and dome portions were […], Strips 3-5 […] (mm) wide and 20 mm long were prepared from the remaining tissue cut in a circular fashion. The mucosal layer was removed. One end was fixed to a stationary glass rod and the other to a Grass FT03 transducer at a basal preload of 1.0 g. Two parallel platinum electrodes were included in the stationary glass trod to provide field stimulation of 0.05 Hz, 0.5 milli-seconds at 20 volts. […] Tissues were allowed to equilibrate for at least 60 minutes and primed with 80 mM KCl. A control concentration response curve (cumulative) was generated for each tissue using the potassium channel opener […] as the control agonist. […] After a 60 minute rinsing period, a concentration response curve (cumulative) was generated for the test agonist in the same fashion as that used for the control agonist […]. The maximal efficacy of each compounds (expressed as % relative to […]) is reported. The amount of agent necessary to cause 50% of the agent's maximal response (ED50) was calculated using “ALLFIT” (DeLean et al., Am. J. […] Agonist potencies were also expressed as an index relative to […]. The index was calculated by dividing the ED50 for […] by the ED50 for the test agonist in a given tissue. Each tissue was used for only one test agonist, and the indices obtained from each tissue were averaged to provide an average index of potency.

[2] = tested on: Guinea-Pig Bladder (GPB) Cells; experiment: Membrane Hyperpolarization (MHP) assay, DiBAC(4)3 / FLIPR; conditions: for Maximal Response (% P1075): maximal steady-state hyperpolarization, normalized to 10 μM P1075 (100%); for EC50: membrane hyperpolarization, GPB cells; for Emax: read-out: Maximal Response (% P1075), maximal steady-state hyperpolarization, normalized to 10 μM P1075 (100%)

Row | EC50 [2] [µM] | Compound | Index [1] | Efficacy (% P1075) [1] [% P1075] | pD2 [1] | Maximal Response (% P1075) [2] [% P1075] | also measured
1 | 0.091 | O=C1COCC2=C1C(c1ccc3nonc3c1)C1=C(COCC1=O)N2 [Example 34, 5-(2,1,3-benzoxadiazol-5-yl)-5,10-dihydro-1H,3H-dipyrano[3,4-b:4,3-e]pyridine-4,6(7H,9H)-dione] | 0.96 | 93 | 7.0 | 88 | –
2 | 0.019 | Cc1ccc(C2C3=C(COCC3=O)NC3=C2C(=O)COC3)cc1Br [Example 53, 5-(3-bromo-4-methylphenyl)-5,10-dihydro-1H,3H-dipyrano[3,4-b:4,3-e]pyridine-4,6(7H,9H)-dione] | 0.44 | 100 | 7.0 | 98 | –
3 | 0.0095 | Cc1ccc(C2C3=C(COCC3=O)NC3=C2C(=O)COC3)cc1I [Example 54, 5-(3-iodo-4-methylphenyl)-5,10-dihydro-1H,3H-dipyrano[3,4-b:4,3-e]pyridine-4,6(7H,9H)-dione] | 0.48 | 100 | 6.9 | 101 | –
4 | 0.046 | O=C1COCC2=C1C(c1cc(Br)c(F)cc1O)C1=C(COCC1=O)N2 [Example 58, 5-(5-bromo-4-fluoro-2-hydroxyphenyl)-5,10-dihydro-1H,3H-dipyrano[3,4-b:4,3-e]pyridine-4,6(7H,9H)-dione] | 0.19 | 84 | 6.2 | 94 | –
5 | 0.25 | C=C(C)c1cc(C2C3=C(COCC3=O)NC3=C2C(=O)COC3)ccc1F [Example 64, 5-(4-fluoro-3-isopropenylphenyl)-5,10-dihydro-1H,3H-dipyrano[3,4-b:4,3-e]pyridine-4,6(7H,9H)-dione] | 0.031 | 95 | 5.5 | 84 | –

Continued, molecule first:

Row | Compound | EC50 [2] [µM] | Index [1] | Efficacy (% P1075) [1] [% P1075] | pD2 [1] | Maximal Response (% P1075) [2] [% P1075] | also measured
6 | C[C@H]1OCC2=C(C1=O)[C@H](c1ccc(F)c(Br)c1)C1=C(COC1=O)N2 (relative stereo) [Example 85, (cis)-9-(3-bromo-4-fluorophenyl)-7-methyl-5,9-dihydro-3H-furo[3,4-b]pyrano[4,3-e]pyridine-1,8(4H,7H)-dione] | – | – | – | – | – | melting point: 234 to 239 °C
7 | C[C@@H]1OCC(=O)C2=C1NC1=C(C(=O)OC1)[C@H]2c1ccc(F)c(Br)c1 (relative stereo) [Example 89, (cis)-9-(3-bromo-4-fluorophenyl)-5-methyl-5,9-dihydro-3H-furo[3,4-b]pyrano[4,3-e]pyridine-1,8(4H,7H)-dione] | – | – | – | – | – | melting point: 260 to 263 °C
8 | C[C@@H]1OC(=O)C2=C1NC1=C(C(=O)COC1)[C@H]2c1ccc(F)c(Br)c1 (relative stereo) [Example 91, (cis)-9-(3-bromo-4-fluorophenyl)-3-methyl-5,9-dihydro-3H-furo[3,4-b]pyrano[4,3-e]pyridine-1,8(4H,7H)-dione] | – | – | – | – | – | melting point: 213 to 216 °C
9 | C[C@@H]1OC(=O)C2=C1NC1=C(C(=O)COC1)[C@H]2c1ccc(F)c(Br)c1 (relative stereo) [Example 100, (cis)-9-(3-bromo-4-fluorophenyl)-3-methyl-5,9-dihydro-3H-furo[3,4-b]pyrano[4,3-e]pyridine-1,8(4H,7H)-dione] | – | – | – | – | – | melting point: 230 to 233 °C
10 | CCC1OC(=O)C2=C1NC1=C(C(=O)COC1)C2c1ccc(F)c(Br)c1 (single isomer, unassigned) [Example 95, 9-(3-bromo-4-fluorophenyl)-3-ethyl-5,9-dihydro-3H-furo[3,4-b]pyrano[4,3-e]pyridine-1,8(4H,7H)-dione] | – | – | – | – | – | melting point: 161 to 162 °C
11 | O=C1COCC2=C1C(c1ccc(Cl)c(Cl)c1)C1=C(COCC1=O)N2 [Example 33, 5-(3,4-dichlorophenyl)-5,10-dihydro-1H,3H-dipyrano[3,4-b:4,3-e]pyridine-4,6(7H,9H)-dione] | 0.0034 | 0.27 | 93 | 5.9 | 92 | –
12 | O=C1COCC2=C1C(c1ccc([N+](=O)[O-])s1)C1=C(COCC1=O)N2 [Example 35, 5-(5-nitro-2-thienyl)-5,10-dihydro-1H,3H-dipyrano[3,4-b:4,3-e]pyridine-4,6(7H,9H)-dione] | 0.025 | 1.8 | 100 | 7.4 | 98 | –
13 | O=C1COCC2=C1C(c1csc([N+](=O)[O-])c1)C1=C(COCC1=O)N2 [Example 36, 5-(5-nitro-3-thienyl)-5,10-dihydro-1H,3H-dipyrano[3,4-b:4,3-e]pyridine-4,6(7H,9H)-dione] | 0.082 | 0.24 | 100 | 6.5 | 98 | –
14 | O=C1COCC2=C1C(c1ccc(F)c(I)c1)C1=C(CCS1(=O)=O)N2 (stereo not drawn) [Example 37, 9-(4-fluoro-3-iodophenyl)-2,3,5,9-tetrahydro-4H-pyrano[3,4-b]thieno[2,3-e]pyridin-8(7H)-one 1,1-dioxide] | – | 2.1 | – | – | – | Emax [1]: 95%; EC50 [1]: 0.0501 µM; EC50 ([2]; Cavia porcellus): 0.00064 µM; Emax ([2]; Cavia porcellus): 105%
15 | Cl.O=C1CCC2=C1C(c1ccc(F)c(Cl)c1)C1=C(CNCC1=O)N2 (stereo not drawn) [Example 38, 5-(3-chloro-4-fluorophenyl)-2,3,5,7,8,9-hexahydro-1H-cyclopenta[b][1,7]naphthyridine-4,6-dione Hydrochloride] | – | 0.024 | – | – | – | Emax [1]: 80%; EC50 [1]: 5.01 µM; EC50 ([2]; Cavia porcellus): 0.39 µM; Emax ([2]; Cavia porcellus): 82%
16 | Cl.O=C1CNCC2=C1C(c1ccc(F)c(Br)c1)C1=C(COC1=O)N2 (stereo not drawn) [Example 39, 9-(3-bromo-4-fluorophenyl)-5,6,7,9-tetrahydrofuro[3,4-b][1,7]naphthyridine-1,8(3H,4H)-dione Hydrochloride] | – | – | – | – | – | Index ([1]; Hydrochloride): 0.036; Emax [1]: 96%; pD2 ([1]; Hydrochloride): 5.6; Maximal Response (% P1075) ([2]; Hydrochloride): 80 % P1075; EC50 ([2]; Hydrochloride): 0.68 µM
17 | Cl.O=C1CNCC2=C1C(c1ccc(F)c(Br)c1)C1=C(COC1=O)N2 (stereo not drawn) [Example 40, 9-(3-bromo-4-fluorophenyl)-5,6,7,9-tetrahydrofuro [3,4-b][1,7]naphthyridine-1,8(3H,4H)-dione hydrochloride] | – | – | – | – | – | Index ([1]; Hydrochloride): 0.13; Efficacy (% P1075) ([1]; Hydrochloride): 91 % P1075; pD2 ([1]; Hydrochloride): 6.0; Maximal Response (% P1075) ([2]; Hydrochloride): 111 % P1075; EC50 ([2]; Hydrochloride): 0.32 µM
18 | O=C1CCCC2=C1C(c1ccc(F)c(Br)c1)C1=C(CSCC1=O)N2 (stereo not drawn) [Example 50, 5-(3-bromo-4-fluorophenyl)-5,8,9,10-tetrahydro-1H-thiopyrano[3,4-b]quinoline-4,6(3H,7H)-dione] | – | 0.28 | – | – | – | Emax [1]: 96%; EC50 [1]: 0.631 µM; EC50 ([2]; Cavia porcellus): 0.084 µM; Emax ([2]; Cavia porcellus): 108%
19 | O=C1COCC2=C1C(c1ccc(F)c(Br)c1)C1=C(CCNC1=O)N2 (stereo not drawn) [Example 52, 10-(3-bromo-4-fluorophenyl)-3,4,6,10-tetrahydro-2H-pyrano[3,4-b][1,6]naphthyridine-1,9(5H,8H)-dione] | – | 0.069 | – | – | – | Emax [1]: 99%; EC50 [1]: 5.01 µM; EC50 ([2]; Cavia porcellus): 0.38 µM; Emax ([2]; Cavia porcellus): 105%
20 | O=C1COCC2=C1C(c1ccc(Br)c(Br)c1)C1=C(COCC1=O)N2 [Example 55, 5-(3,4-dibromonhenyl)-5,10-dihydro-1H,3H-dipyrano [3,4-b:4,3-e]pyridine-4,6(7H,9H)-dione] | 0.0039 | 0.35 | 80 | 6.2 | 108 | –
21 | O=C1COCC2=C1C(c1ccc(F)c(-c3ccco3)c1)C1=C(COCC1=O)N2 [Example 57, 5-[4-fluoro-3-(2-furyl)phenyl]-5,10-dihydro-1H,3H-dipyrano[3,4-b:4,3-e]pyridine-4,6(7H,9H)-dione] | 4 | 0.090 | 45 | 5.6 | 69 | –
22 | Cc1ccc(C2C3=C(COCC3=O)NC3=C2C(=O)COC3)cc1[N+](=O)[O-] [Example 59, 5-(4-methyl-3-nitrophenyl)-5,10-dihydro-1H,3H-dipyrano[3,4-b:4,3-e]pyridine-4,6(7H,9H)-dione] | 0.099 | 0.17 | 73 | 5.9 | 94 | –
